Earlier results, collected in patent US20050203299A1 (priority 2003, published 2005).

Tests used:
[1] = prepared by recrystallization from ethanol or by heating aripiprazole hydrate at 80° C.; according to WO 03/26659
[2] = molecular target: T1, serotonin 5-HT2C receptor (Homo sapiens, UniProt P28335)
T1 sequence (P28335 33-458): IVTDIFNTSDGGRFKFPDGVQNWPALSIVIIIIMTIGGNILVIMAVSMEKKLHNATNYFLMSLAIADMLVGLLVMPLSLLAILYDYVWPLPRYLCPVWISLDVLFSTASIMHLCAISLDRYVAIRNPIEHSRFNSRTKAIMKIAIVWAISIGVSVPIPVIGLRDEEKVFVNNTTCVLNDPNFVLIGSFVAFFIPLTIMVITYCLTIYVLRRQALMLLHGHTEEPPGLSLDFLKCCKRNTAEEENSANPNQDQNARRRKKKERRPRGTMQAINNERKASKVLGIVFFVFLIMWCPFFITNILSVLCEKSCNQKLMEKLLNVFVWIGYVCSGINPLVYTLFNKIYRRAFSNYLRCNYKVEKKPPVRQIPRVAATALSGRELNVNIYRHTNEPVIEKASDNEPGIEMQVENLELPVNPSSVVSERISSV

serotonin reuptake site = serotonin reuptake site (Homo sapiens, UniProt P31645)
serotonin reuptake site, sequence (P31645 whole entry): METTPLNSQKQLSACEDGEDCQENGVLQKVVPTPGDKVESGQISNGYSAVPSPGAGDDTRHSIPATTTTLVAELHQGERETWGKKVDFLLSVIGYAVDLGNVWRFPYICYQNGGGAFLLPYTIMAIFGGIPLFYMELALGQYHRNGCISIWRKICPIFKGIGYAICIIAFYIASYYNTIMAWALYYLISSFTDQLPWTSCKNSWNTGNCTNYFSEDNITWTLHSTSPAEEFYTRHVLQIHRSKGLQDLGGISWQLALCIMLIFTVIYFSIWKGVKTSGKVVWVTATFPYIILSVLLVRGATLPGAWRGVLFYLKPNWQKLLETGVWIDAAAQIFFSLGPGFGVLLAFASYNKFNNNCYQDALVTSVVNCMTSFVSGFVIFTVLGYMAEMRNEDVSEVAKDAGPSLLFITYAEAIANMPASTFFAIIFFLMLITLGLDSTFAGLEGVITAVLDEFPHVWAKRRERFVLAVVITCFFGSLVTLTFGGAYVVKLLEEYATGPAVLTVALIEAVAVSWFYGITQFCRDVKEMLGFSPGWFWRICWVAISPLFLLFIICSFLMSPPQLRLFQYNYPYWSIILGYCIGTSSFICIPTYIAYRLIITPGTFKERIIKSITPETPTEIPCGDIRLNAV

[3] = molecular target: T2, serotonin 5-HT1A receptor (Homo sapiens, UniProt P08908)
T2 sequence (P08908 1-422): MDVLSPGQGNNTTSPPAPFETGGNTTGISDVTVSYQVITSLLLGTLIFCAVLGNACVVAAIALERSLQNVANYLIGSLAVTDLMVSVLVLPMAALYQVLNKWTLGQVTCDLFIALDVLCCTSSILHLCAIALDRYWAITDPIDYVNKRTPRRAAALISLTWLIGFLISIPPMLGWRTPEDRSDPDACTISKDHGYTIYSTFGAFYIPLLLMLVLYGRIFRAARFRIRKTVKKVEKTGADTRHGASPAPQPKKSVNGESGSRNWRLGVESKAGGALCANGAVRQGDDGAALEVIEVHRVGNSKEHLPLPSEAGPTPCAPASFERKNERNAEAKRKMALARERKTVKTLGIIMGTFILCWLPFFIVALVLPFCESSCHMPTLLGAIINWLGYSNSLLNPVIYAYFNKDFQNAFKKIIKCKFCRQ

[4] = molecular target: serotonin 5-HT2A receptor (Homo sapiens, UniProt P28223)
serotonin 5-HT2A receptor, sequence (P28223 whole entry): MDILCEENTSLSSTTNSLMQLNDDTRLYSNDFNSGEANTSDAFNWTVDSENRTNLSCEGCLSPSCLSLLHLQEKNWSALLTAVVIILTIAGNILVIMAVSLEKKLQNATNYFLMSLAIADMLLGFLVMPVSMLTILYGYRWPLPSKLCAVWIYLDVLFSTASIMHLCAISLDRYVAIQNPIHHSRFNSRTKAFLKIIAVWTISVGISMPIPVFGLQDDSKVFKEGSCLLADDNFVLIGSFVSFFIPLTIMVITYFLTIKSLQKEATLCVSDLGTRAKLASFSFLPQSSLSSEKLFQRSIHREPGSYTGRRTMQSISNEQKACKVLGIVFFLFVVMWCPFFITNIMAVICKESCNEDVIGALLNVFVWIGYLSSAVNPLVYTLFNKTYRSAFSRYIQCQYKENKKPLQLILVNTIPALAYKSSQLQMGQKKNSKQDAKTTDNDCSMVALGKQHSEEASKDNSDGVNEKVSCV

[5] = tested on: cholinergic muscarinic receptors
histamine H1 receptor = histamine H1 receptor (Homo sapiens, UniProt P35367)
histamine H1 receptor, sequence (P35367 whole entry): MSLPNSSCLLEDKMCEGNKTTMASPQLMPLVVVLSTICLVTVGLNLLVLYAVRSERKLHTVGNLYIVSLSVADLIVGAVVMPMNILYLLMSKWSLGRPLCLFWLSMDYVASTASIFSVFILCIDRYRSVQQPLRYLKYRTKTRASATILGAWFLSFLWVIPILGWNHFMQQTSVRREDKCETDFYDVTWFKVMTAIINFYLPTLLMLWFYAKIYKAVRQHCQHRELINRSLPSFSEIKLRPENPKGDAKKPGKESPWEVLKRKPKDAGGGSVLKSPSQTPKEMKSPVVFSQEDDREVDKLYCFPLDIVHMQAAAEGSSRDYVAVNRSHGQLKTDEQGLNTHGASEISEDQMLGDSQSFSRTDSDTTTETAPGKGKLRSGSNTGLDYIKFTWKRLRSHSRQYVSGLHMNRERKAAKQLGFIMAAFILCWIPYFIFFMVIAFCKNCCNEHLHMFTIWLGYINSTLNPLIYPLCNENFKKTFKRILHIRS

O=C1CCc2ccc(OCCCCN3CCN(c4cccc(Cl)c4Cl)CC3)cc2N1 [anhydride aripiprazole, aripiprazole]
hygroscopicity [1]: significantly hygroscopic

O=C1CCc2ccc(OCCCCN3CCN(c4cccc(Cl)c4Cl)CC3)cc2N1 [Aripiprazole]
affinity for serotonin 5-HT2C receptor [2]: moderate affinity | affinity for serotonin reuptake site (serotonin reuptake site): moderate affinity | affinity for serotonin 5-HT1A receptor [3]: high affinity | affinity for serotonin 5-HT2A receptor [4]: high affinity | affinity for cholinergic muscarinic receptors [5]: no appreciable affinity | affinity for α1-adrenergic receptor (α1-adrenergic receptor): moderate affinity | affinity for histamine H1 receptor (histamine H1 receptor): moderate affinity
